Test systems include A549 NSCLC; ACHN renal; BT-549 breast; DU-145 prostate; K-562 leukemia; MCF7 breast; NCI-H23 lung; SK-OV-3 ovarian; SR leukemia; NCI/ADR-RES ovarian.
Common to all, as to experiment: inhibition of tumour cell growth, NCI panel, 48 h

SMILES strings stand for the structures.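 How tested: cells in 96-well plates exposed to compound for 48 hours at five concentrations. The concentration for 50% growth inhibition is given as GI50. TGI denotes the concentration required for complete inhibition of growth.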 Some results are limits rather than exact numbers.

The source of these data is PubChem BioAssay (NCI).

Consider `O=C1c2ccccc2C(=O)c2sc(Nc3ccccc3Cl)nc21`, for which the TGI came out at 46.2 µM in the assay on A549 NSCLC; 14.9 µM in the assay with ACHN renal; 29.5 µM in the assay on BT-549 breast; 31.4 µM in the assay on DU-145 prostate; 6.8 µM in the assay on K-562 leukemia; 40.6 µM in the assay with MCF7 breast. Also, the TGI in the assay on NCI-H23 lung stood at 17.5 µM; in the assay with SK-OV-3 ovarian it was 33.7 µM; with SR leukemia, 12.1 µM.
With `O=S(=O)(Nc1ccc(F)c(Cl)c1)c1ccc(-c2cnc(C3CC3)o2)cc1`, the GI50 in the assay with A549 NSCLC is 0.773 µM; in the assay with ACHN renal it was 0.533 µM; with BT-549 breast, 0.577 µM; in the assay with DU-145 prostate it was 0.592 µM; in the assay on K-562 leukemia, 0.0623 µM; in the assay with MCF7 breast it was 0.126 µM. Moreover, the GI50 in the assay on NCI-H23 lung is 0.593 µM; with NCI/ADR-RES ovarian, 0.252 µM; in the assay with SK-OV-3 ovarian, 0.728 µM; with SR leukemia it was 0.0838 µM. In addition, the TGI is 13.1 µM in the assay with A549 NSCLC; 12 µM in the assay on ACHN renal; 9.01 µM with BT-549 breast; 12.2 µM in the assay on DU-145 prostate; > 52.8 µM with K-562 leukemia; 9.83 µM with MCF7 breast. For the same compound, the TGI was 11.3 µM with NCI-H23 lung, 8.76 µM with NCI/ADR-RES ovarian, 14.4 µM in the assay on SK-OV-3 ovarian and > 42.3 µM in the assay on SR leukemia.
In the case of `COc1ccc(/C=C\c2cc(OC)c(OC)c(OC)c2)cc1OCC(=O)Nc1ccc2nc(C)sc2c1`, the GI50 with ACHN renal was 3.12 µM; in the assay on BT-549 breast it was 3.05 µM; with DU-145 prostate, 3.81 µM; in the assay with K-562 leukemia, 2.19 µM; in the assay on MCF7 breast it was 0.748 µM; in the assay with NCI-H23 lung, 2.53 µM. The GI50 is 2.36 µM in the assay on NCI/ADR-RES ovarian, 5.27 µM in the assay with SK-OV-3 ovarian and 2.93 µM in the assay with SR leukemia. In addition, the TGI with ACHN renal is 10.9 µM; with BT-549 breast, 8.53 µM; in the assay with DU-145 prostate it was 29.7 µM; with K-562 leukemia it was > 100 µM; with MCF7 breast, 12.9 µM; in the assay on NCI-H23 lung, 7.95 µM. The TGI with NCI/ADR-RES ovarian is 8 µM; with SK-OV-3 ovarian, 50.4 µM; in the assay on SR leukemia it was > 100 µM.
As for `Cc1c(C(N)=O)sc2c1c(=O)n(Cc1ccccc1)c1nnc(-c3ccc(Br)cc3)n21`, the GI50 in the assay on A549 NSCLC was 2.51 µM; in the assay on ACHN renal it was 1.46 µM; in the assay with BT-549 breast, 3.85 µM; with DU-145 prostate, 2.32 µM; with K-562 leukemia, 3.09 µM; in the assay on MCF7 breast it was 3.4 µM. Besides, the GI50 in the assay on NCI-H23 lung was 3.11 µM; in the assay on NCI/ADR-RES ovarian it was 2.28 µM; in the assay with SK-OV-3 ovarian, 2.97 µM. Also, the TGI worked out at 13.1 µM in the assay on A549 NSCLC; 12.3 µM in the assay on ACHN renal; 18.9 µM in the assay on BT-549 breast; 14.9 µM with DU-145 prostate; 20.4 µM in the assay with K-562 leukemia; 14.6 µM in the assay on MCF7 breast. The TGI was 15.2 µM with NCI-H23 lung, 11.2 µM in the assay with NCI/ADR-RES ovarian and 16.3 µM in the assay on SK-OV-3 ovarian.
Regarding `CC(=O)c1cc(C(=O)c2ccc3c(c2)Sc2ccccc2N3)c2c(C)cccn12`, the GI50 was 0.265 µM with A549 NSCLC; 1.42 µM in the assay with ACHN renal; 0.777 µM in the assay on BT-549 breast; 0.38 µM in the assay on DU-145 prostate; 0.112 µM in the assay on K-562 leukemia; 0.117 µM with MCF7 breast. For the same compound, the results for the GI50 in the assay on NCI-H23 lung, with NCI/ADR-RES ovarian and in the assay with SK-OV-3 ovarian were 0.611 µM, 0.184 µM and 0.266 µM, respectively. The TGI with A549 NSCLC is 40.4 µM; with ACHN renal it was > 100 µM; in the assay with BT-549 breast, 23.8 µM; in the assay with DU-145 prostate, > 34.8 µM; in the assay on K-562 leukemia, > 100 µM; in the assay on MCF7 breast it was > 100 µM. Besides, the TGI with NCI-H23 lung is > 100 µM; with NCI/ADR-RES ovarian it was 18 µM; in the assay with SK-OV-3 ovarian, 10.5 µM.
`COc1cc2c(=O)n(CCN(C)C)c3c4cc5c(cc4ccc3c2cc1OC)OCO5`: the GI50 in the assay on ACHN renal was 0.128 µM; in the assay on BT-549 breast, 0.413 µM; in the assay on DU-145 prostate, 0.199 µM; in the assay with K-562 leukemia, 0.186 µM; in the assay with MCF7 breast it was 0.102 µM; with NCI-H23 lung, 0.212 µM. Also, the GI50 was 0.256 µM in the assay on NCI/ADR-RES ovarian, 0.275 µM in the assay on SK-OV-3 ovarian and 0.0557 µM in the assay with SR leukemia. Also, the TGI in the assay on ACHN renal was 0.363 µM; in the assay with BT-549 breast, 5.27 µM; in the assay on DU-145 prostate, 6.27 µM; with K-562 leukemia, > 11.3 µM; in the assay with MCF7 breast, 6.16 µM; in the assay on NCI-H23 lung, 1.38 µM. Also, the TGI in the assay with NCI/ADR-RES ovarian was > 50 µM; in the assay with SK-OV-3 ovarian it was 1.87 µM; in the assay with SR leukemia it was 3.78 µM.
For the compound `NC(=Nc1ccc(N)cc1)C(N)=Nc1ccc(N)cc1`, the GI50 with A549 NSCLC was > 100 µM; in the assay with ACHN renal, 37.5 µM; in the assay on BT-549 breast, > 100 µM; with DU-145 prostate it was > 100 µM; in the assay on K-562 leukemia it was 81.8 µM; in the assay on MCF7 breast, 82.8 µM. The GI50 with NCI-H23 lung, with NCI/ADR-RES ovarian and in the assay with SK-OV-3 ovarian was > 100 µM throughout. For the same compound, the TGI with A549 NSCLC, with ACHN renal, in the assay with BT-549 breast, with DU-145 prostate, in the assay with K-562 leukemia and in the assay with MCF7 breast was > 100 µM in each case. In addition, the TGI in the assay on NCI-H23 lung, in the assay with NCI/ADR-RES ovarian and in the assay with SK-OV-3 ovarian was > 100 µM each time.
On to `Nc1ccccc1C#C/C=C\C#Cc1c(F)c(F)c(F)c(F)c1F`, for which the GI50 with A549 NSCLC was 11.6 µM; with ACHN renal, 14.5 µM; in the assay with BT-549 breast, 10.3 µM; with DU-145 prostate, 24.7 µM; in the assay with K-562 leukemia, 16.3 µM; in the assay on MCF7 breast, 24.6 µM. The results for the GI50 with NCI-H23 lung, with NCI/ADR-RES ovarian and in the assay with SK-OV-3 ovarian were 14.7 µM, 19.5 µM and 33.9 µM, respectively. For the same compound, the TGI in the assay on A549 NSCLC is 25.5 µM; with ACHN renal, 30.7 µM; in the assay on BT-549 breast it was 28.6 µM; in the assay on DU-145 prostate, 79.9 µM; in the assay on K-562 leukemia it was 53.7 µM; in the assay on MCF7 breast, > 100 µM. The values for the TGI in the assay with NCI-H23 lung, in the assay on NCI/ADR-RES ovarian and in the assay with SK-OV-3 ovarian were 32.4 µM, 41.2 µM and > 100 µM, respectively.
